Reference: ChEMBL document CHEMBL5257018, “Novel Strategies for the Treatment of Pseudomonas aeruginosa Infections” (J Med Chem, 2016)
In brackets after ≈: the same amount, converted by molar mass. Values belong to the molecule of their own block, whether it stands above or below them. Bridge positions count the residues as written; N and C are the ends. Square brackets hold non-standard residues; d marks the D form. Peptide text beside a SMILES is read from it. * marks the point of attachment. Gly(octyl) = CCCCCCCC[C@H](N)C(=O)O; Heptanoyl(6-Me) = CC(C)CCCCC(=O)*; X1 = CC[C@@H](C)CCCCC(=O)*; Octanoyl = CCCCCCCC(=O)*; Dab = NCC[C@H](N)C(=O)O

Columns and labels:
Pseudomonas aeruginosa [1] = experiment: Antimicrobial activity against Pseudomonas aeruginosa assessed as reduction in bacterial growth; assay type: functional, organism-based
Pseudomonas aeruginosa [2] = experiment: Antimicrobial activity against Pseudomonas aeruginosa PA14 assessed as reduction in bacterial growth; assay type: functional
Homo sapiens = species: Homo sapiens; experiment: Inhibition of elastase (unknown origin) at 10 uM relative to control
[3] = molecular target: T1, PA-I galactophilic lectin (Pseudomonas aeruginosa (strain ATCC 15692 / PAO1 / 1C / PRS 101 / LMG12228)) (UniProt Q05097); experiment: Binding affinity to Pseudomonas aeruginosa PAO1 LecA assessed as dissociation constant
T1 sequence (whole entry): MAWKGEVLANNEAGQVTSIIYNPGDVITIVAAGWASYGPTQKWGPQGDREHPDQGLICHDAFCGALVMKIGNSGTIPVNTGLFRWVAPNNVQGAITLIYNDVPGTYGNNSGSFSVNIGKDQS

Pseudomonas aeruginosa [4] = experiment: Antibacterial activity against Pseudomonas aeruginosa PAO1 assessed as reduction in bacterial growth; assay type: functional
[5] = Inhibition of elastase (unknown origin); set-up: species or system Homo sapiens
Pseudomonas aeruginosa [6] = experiment: Antibacterial activity against Pseudomonas aeruginosa PAO1 infected in Caenorhabditis elegans worms assessed as worms survival at 50 uM measured after 24 hrs; assay type: functional
Pseudomonas aeruginosa [7] = experiment: Inhibition of biofilm formation in Pseudomonas aeruginosa assessed as reduction in biofilm formation; assay type: functional, organism-based
[8] = molecular target: T2, Acyl-homoserine lactone acylase PvdQ (Pseudomonas aeruginosa (strain LESB58), UniProt Q9I194); experiment: Inhibition of Pseudomonas aeruginosa ATCC 15692 pvdQ
T2 sequence (Q9I194 whole entry): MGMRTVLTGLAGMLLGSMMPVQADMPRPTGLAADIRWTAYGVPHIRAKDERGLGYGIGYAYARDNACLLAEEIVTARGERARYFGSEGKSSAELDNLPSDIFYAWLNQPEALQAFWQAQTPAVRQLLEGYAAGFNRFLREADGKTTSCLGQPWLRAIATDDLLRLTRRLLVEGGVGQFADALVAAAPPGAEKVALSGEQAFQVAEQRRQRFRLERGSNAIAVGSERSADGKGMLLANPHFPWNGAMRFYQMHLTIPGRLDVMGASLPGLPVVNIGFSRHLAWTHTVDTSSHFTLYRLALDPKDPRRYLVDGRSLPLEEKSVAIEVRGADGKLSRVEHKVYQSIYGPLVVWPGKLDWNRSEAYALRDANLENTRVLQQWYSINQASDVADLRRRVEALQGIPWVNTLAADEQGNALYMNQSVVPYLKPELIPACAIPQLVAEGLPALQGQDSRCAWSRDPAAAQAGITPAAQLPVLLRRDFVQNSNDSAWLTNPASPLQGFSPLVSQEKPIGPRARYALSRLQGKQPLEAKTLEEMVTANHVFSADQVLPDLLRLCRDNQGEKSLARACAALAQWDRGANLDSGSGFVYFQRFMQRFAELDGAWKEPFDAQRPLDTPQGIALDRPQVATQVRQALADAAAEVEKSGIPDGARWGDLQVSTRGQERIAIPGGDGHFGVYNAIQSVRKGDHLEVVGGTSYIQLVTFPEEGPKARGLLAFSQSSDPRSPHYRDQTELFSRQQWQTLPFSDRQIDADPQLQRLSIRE

[9] = molecular target: T2, Acyl-homoserine lactone acylase PvdQ; experiment: Inhibition of Pseudomonas aeruginosa ATCC 15692 pvdQ incubated for 4 hrs
Pseudomonas aeruginosa [10] = experiment: Antibiofilm activity against Pseudomonas aeruginosa assessed as reduction in biofilm formation at 100 uM measured after 24 hrs; assay type: functional; set-up: scale not given: the % may be the effect or the level left
Pseudomonas aeruginosa [11] = experiment: Antibiofilm activity against Pseudomonas aeruginosa assessed as reduction in biofilm formation; assay type: functional, organism-based
Pseudomonas aeruginosa [12] = experiment: Antimicrobial activity against polymyxin resistant Pseudomonas aeruginosa assessed as reduction in bacterial growth; assay type: functional
[13] = Inhibition of bacterial FabH; set-up: species or system Bacteria
[14] = molecular target: T3, Transcriptional activator protein LasR (Pseudomonas aeruginosa (strain ATCC 15692 / PAO1 / 1C / PRS 101 / LMG12228)) (UniProt P25084); experiment: Inhibition of Pseudomonas aeruginosa PAO1 LasR at 200 uM relative to control
T3 sequence (whole entry): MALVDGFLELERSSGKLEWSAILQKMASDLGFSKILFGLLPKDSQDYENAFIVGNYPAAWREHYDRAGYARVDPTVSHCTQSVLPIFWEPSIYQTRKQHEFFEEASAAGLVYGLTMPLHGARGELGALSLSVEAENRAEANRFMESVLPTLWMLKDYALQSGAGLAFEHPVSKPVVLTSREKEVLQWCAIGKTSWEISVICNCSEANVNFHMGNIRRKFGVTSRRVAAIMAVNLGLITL

Pseudomonas aeruginosa [15] = experiment: Downregulation of c-di-GMP level in Pseudomonas aeruginosa PA14 planktonic cells harboring wspR gene mutation at 50 uM incubated for 24 hrs by HPLC analysis; assay type: functional
Pseudomonas aeruginosa [16] = experiment: Antagonist activity at Pseudomonas aeruginosa MvfR at 15 uM relative to control; set-up: scale not given: the % may be the effect or the level left; conditions: filed as antagonist

MIC (Pseudomonas aeruginosa [1]): 1 µg/mL | MIC (Pseudomonas aeruginosa [2]): 3.4 µg/mL (≈ 3.7 µM)
SMILES: CO[C@H](C(N)=O)[C@H](NC(=O)c1ccc(NC(=O)c2ccc([N+](=O)[O-])cc2)cc1)C(=O)Nc1ccc(C(=O)Nc2ccc(C(=O)Nc3ccc(C(=O)O)cc3OC(C)C)c(O)c2OC(C)C)cc1

inhibition (Homo sapiens): 50%
SMILES: CCCCCCCCCC(=O)CC(=O)Nc1ccccc1O

K [3]: 28 nM
SMILES: OC[C@H]1O[C@@H](OCc2cn([C@H]3[C@H](O)[C@@H](O)[C@H](c4cn([C@H]5[C@H](O)[C@@H](O)[C@H](n6cc([C@@H]7O[C@H](CO)[C@@H](n8cc(CO[C@@H]9O[C@H](CO)[C@H](O)[C@H](O)[C@H]9O)nn8)[C@H](O)[C@H]7O)nn6)O[C@@H]5CO)nn4)O[C@@H]3CO)nn2)[C@H](O)[C@@H](O)[C@H]1O

IC50 [5]: 380 µM
SMILES: COc1cc(/C=C2\S/C(=N\c3ccccc3)N(c3ccccc3)C2=O)cc(OC)c1O

IC50 (Pseudomonas aeruginosa [7]): 8 µM
SMILES: O=C(CCCOc1ccc(Br)cc1)NC1CCSC1=O (configuration not stated)
Activity (Pseudomonas aeruginosa [6]): 23%

IC50 [8]: 65 µM | IC50 [9]: < 0.02 µM
SMILES: O=c1onc2n1-c1cc(Br)ccc1OC2

IC50 (Pseudomonas aeruginosa [11]): 0.046 µM
SMILES: COc1ccc2[nH]c(SCc3ccc(C)cc3)nc2c1
Activity (Pseudomonas aeruginosa [10]): 50%

The next lines start with the molecule.

SMILES: CC(=O)Oc1cccc(C(=O)NCCCC(CCCNC(=O)c2cccc(OC(C)=O)c2OC(C)=O)(CCCNC(=O)c2cccc(OC(C)=O)c2OC(C)=O)NC(=O)CCC(=O)N[C@@H](C(=O)N[C@@H]2C(=O)N3[C@@H]2SC(C)(C)[C@@H]3C(=O)O)c2ccccc2)c1OC(C)=O
MIC (Pseudomonas aeruginosa [1]): 0.39 µM | MIC (Pseudomonas aeruginosa [4]): > 200 µM

SMILES: CCCCCCCC[C@@H]1NC(=O)[C@@H](Cc2ccccc2)NC(=O)[C@H](CCN)NC(=O)[C@@H](NC(=O)[C@H](CCN)NC(=O)[C@@H](NC(=O)[C@H](CCN)NC(=O)CCCCCCC)[C@@H](C)O)CCNC(=O)[C@H]([C@@H](C)O)NC(=O)[C@H](CCN)NC(=O)[C@H](CCN)NC1=O (Octanoyl-[Dab]T[Dab][Dab][Dab][dF][Gly(octyl)][Dab][Dab]T; lactam 4-C)
MIC (Pseudomonas aeruginosa [12]): < 2 µg/mL

SMILES: CC[C@@H](C)CCCCC(=O)N[C@@H](CCN)C(=O)N[C@H](C(=O)N[C@@H](CCN)C(=O)N[C@H]1CCNC(=O)[C@H]([C@@H](C)O)NC(=O)[C@H](CCN)NC(=O)[C@H](CCN)NC(=O)[C@H](CC(C)C)NC(=O)[C@@H](Cc2ccccc2)NC(=O)[C@H](CCN)NC1=O)[C@@H](C)O (X1-[Dab]T[Dab][Dab][Dab][dF]L[Dab][Dab]T; lactam 4-C)
MIC (Pseudomonas aeruginosa [12]): < 2 µg/mL

SMILES: CCN(CC)S(=O)(=O)c1cccc(C(=O)Nc2cccc(O)c2C(=O)O)c1
IC50 [13]: 35 µM

SMILES: O=C(Cc1ccc(Br)cc1)N[C@H]1CCOC1=O
inhibition [14]: 77%

SMILES: O=C1c2ccccc2[Se](=O)N1c1ccccc1 (configuration not stated)
Activity (Pseudomonas aeruginosa [15]): 80%

SMILES: CC(=O)Oc1cccc(C(=O)NCCCC(CCCNC(=O)c2cccc(OC(C)=O)c2OC(C)=O)(CCCNC(=O)c2cccc(OC(C)=O)c2OC(C)=O)NC(=O)CCC(=O)N[C@@H](C(=O)N[C@@H]2C(=O)N3[C@@H]2SC(C)(C)[C@@H]3C(=O)O)c2ccc(O)cc2)c1OC(C)=O
MIC (Pseudomonas aeruginosa [1]): 0.39 µM | MIC (Pseudomonas aeruginosa [4]): > 200 µM

SMILES: CCCCCCCc1cc(=O)c2cc([N+](=O)[O-])ccc2[nH]1
Activity (Pseudomonas aeruginosa [16]): 44%

SMILES: CC(C)CCCCC(=O)N[C@@H](CCN)C(=O)N[C@H](C(=O)N[C@@H](CCN)C(=O)N[C@H]1CCNC(=O)[C@H]([C@@H](C)O)NC(=O)[C@H](CCN)NC(=O)[C@H](CCN)NC(=O)[C@H](CC(C)C)NC(=O)[C@@H](Cc2ccccc2)NC(=O)[C@H](CCN)NC1=O)[C@@H](C)O [POLYMYXIN B2] ({Heptanoyl(6-Me)}-[Dab]T[Dab][Dab][Dab][dF]L[Dab][Dab]T; lactam 4-C)
MIC (Pseudomonas aeruginosa [12]): < 2 µg/mL
